Reference: patent US8349883B2, “Hydroxamate-based inhibitors of deacetylases B” (Novartis AG, priority 2008, dated 2013)

Tests used:
HDAC-1 = biological target: T1, HDAC-1 (Homo sapiens, UniProt Q13547); assay: HDAC inhibition assay (purified GST-HDAC protein); format: biochemical
T1 construct: made in house; host or cells: Sf9 or Sf21 insect cells (baculovirus, donor vector pFB-GSTX3)
Text: The baculovirus donor vector pFB-GSTX3 was used to generate a recombinant baculovirus that can express the HDAC polypeptide. Transfer vectors containing the HDAC coding region were transfected into the DH10Bac cell line (GIBCO) and plated on selective agar plates. Colonies without insertion of the fusion sequence into the viral genome (carried by the bacteria) were blue. Single, white colonies were picked and viral DNAs (bacmid) were isolated from the bacteria by standard plasmid purification procedures. Sf9 cells or Sf21 (American Type Culture Collection) cells were then transfected in […] flasks with the viral DNA using Cellfectin reagent.
Virus-containing media was collected from the transfected cell culture and used for infection to increase its titer. Virus-containing media obtained after two rounds of infection was used for large-scale protein expression. For large-scale protein expression 100 cm^2 round tissue culture plates were seeded with 5×10^7 cells/plate and infected with 1 mL of virus-containing media (at an approximately MOI of 5). After 3 days, the cells were scraped off the plate and centrifuged at 500 rpm for 5 minutes. Cell pellets from 10-20, 100 cm^2 plates, were re-suspended in 50 mL of ice-cold lysis buffer (25 mM tris-HCl, pH 7.5, 2 mM EDTA, 1% NP-40, 1 mM DTT, 1 mM P MSF). The cells were stirred on ice for 15 minutes and then centrifuged at 5,000 rpms for 20 minutes.
The centrifuged cell lysate was loaded onto a 2 mL glutathione-sepharose column (Pharmacia) and was washed thrice with 10 mL of 25 mM tris-HCl, pH 7.5, 2 mM EDTA, 1 mM DTT, 200 mM NaCl. The GST-tagged proteins were then eluted by 10 applications (1 mL each) of 25 mM tris-HCl, pH 7.5, 10 mM reduced-glutathione, 100 mM NaCl, 1 mM DTT, 10% glycerol and stored at −70° C.
HDAC assays with purified GST-HDAC protein were carried out in a final volume of 30 μL containing 15 ng of GST-HDAC protein, 20 mM tris-HCl, pH 7.5, 1 mM MnCl2, 10 mM MgCl2, 1 mM DTT, 3 μg/mL poly(Glu,Tyr) 4:1, 1% DMSO, 2.0 μM ATP (γ-[^33P]-ATP 0.1 μCi). The activity was assayed in the presence or absence of inhibitors. The assay was carried out in 96-well plates at ambient temperature for 15 minutes under conditions described below and terminated by the addition of 20 μL of 125 mM EDTA. Subsequently, 40 μL of the reaction mixture were transferred onto EMMOBILON-PVDF membrane (Millipore) previously soaked for 5 minutes with methanol, rinsed with water, then soaked for 5 minutes with 0.5% H3PO4 and mounted on vacuum manifold with disconnected vacuum source. After spotting all samples, a vacuum was connected and each well rinsed with 200 μL 0.5% H3PO4. Membranes were removed and washed four times on a shaker with 1.0% H3PO4, once with ethanol. Membranes were counted after drying at ambient temperature, mounting in Packard TopCount 96-well frame, and addition of 10 μL/well of MICROSCINT™ (Packard). IC50 values were calculated by linear regression analysis of the percentage inhibition of each compound in duplicate, at 4 concentrations (usually 0.01, 0.1, 1 and 10 μM).
• Input: 3×4 μL stopped assay on IMMOBILON membrane, not washed • Background (3 wells): assay with H2O instead of enzyme • Positive control (4 wells): 3% DMSO instead of compound • Bath control (1 well): no reaction mix
IC50 values were calculated by logarithmic regression analysis of the percentage inhibition of each compound at 4 concentrations (usually 3- or 10-fold dilution series starting at 10 μM). In each experiment, the actual inhibition by reference compound was used for normalization of IC50 values to the basis of an average value of the reference inhibitor: Normalized IC50=measured IC50 average ref IC50/measured ref IC50
Example: Reference inhibitor in experiment 0.4 μM, average 0.3 μM, Test compound in experiment 1.0 μM, normalization: 0.3/0.4=0.75 μM
For example, known HDAC inhibitors or a synthetic derivative thereof may be used as reference compounds.

HCT116 = HCT116 IC50; format: cell-based; conditions: Homo sapiens, HCT-116

T1 sequence (Q13547 whole entry, species assumed): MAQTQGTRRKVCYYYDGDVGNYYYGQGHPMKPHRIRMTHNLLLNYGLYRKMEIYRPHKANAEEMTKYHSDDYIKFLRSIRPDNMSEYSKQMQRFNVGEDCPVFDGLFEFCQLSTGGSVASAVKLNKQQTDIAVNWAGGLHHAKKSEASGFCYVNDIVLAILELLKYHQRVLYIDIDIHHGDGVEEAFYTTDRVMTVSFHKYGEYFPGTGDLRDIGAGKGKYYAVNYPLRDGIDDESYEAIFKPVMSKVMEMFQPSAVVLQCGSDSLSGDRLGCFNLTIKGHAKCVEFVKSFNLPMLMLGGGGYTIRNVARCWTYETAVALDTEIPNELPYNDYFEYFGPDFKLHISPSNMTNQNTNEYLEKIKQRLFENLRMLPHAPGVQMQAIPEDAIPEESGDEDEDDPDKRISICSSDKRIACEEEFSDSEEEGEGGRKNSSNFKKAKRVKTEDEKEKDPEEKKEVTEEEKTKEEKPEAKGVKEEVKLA

SMILES | IC50 (HDAC-1) [nM] | IC50 (HCT116) [nM]
Cc1ccc(C(O)CN2CCCC2c2ccc(/C=C/C(=O)NO)cc2)cc1 (centres unmarked) [Compound 29, (E)-N-Hydroxy-3-{4-[1-(2-hydroxy-2-p-tolyl-ethyl)-pyrrolidin-2-yl]-phenyl}-acrylamide] | 8 | 40
Cc1[nH]c2ccccc2c1CCN1CCN(C)CC1c1ccc(/C=C/C(=O)NO)cc1 (centres unmarked) [Compound 88, (E)-N-Hydroxy-3-(4-{4-methyl-1-[2-(2-methyl-1H-indol-3-yl)-ethyl]-piperazin-2-yl}-phenyl)-acrylamide] | 9 | 24
Cc1noc(-c2ccccc2)c1CCN1CCC[C@H]1c1ccc(/C=C/C(=O)NO)cc1 [Compound 56, (E)-N-Hydroxy-3-(4-{(S)-1-[2-(3-methyl-5-phenyl-isoxazol-4-yl)-ethyl]-pyrrolidin-2-yl}-phenyl)-acrylamide] | 1.7 | 5
O=C(/C=C/c1ccc(C2CCCN2CC2CCCC2)cc1)NO (centres unmarked) [Compound 40, (E)-3-[4-(1-Cyclopentylmethyl-pyrrolidin-2-yl)-phenyl]-N-hydroxy-acrylamide] | 9 | 42
O=C(/C=C/c1ccc(C2CCCN2CCc2c(-c3ccccc3)[nH]c3ccccc23)cc1)NO (centres unmarked) [Compound 7, (E)-N-Hydroxy-3-(4-{1-[2-(2-phenyl-1H-indol-3-yl)-ethyl]-pyrrolidin-2-yl}-phenyl)-acrylamide] | 12 | 3
O=C(/C=C/c1ccc(C2CCCN2CCc2ccc(Cl)c(Cl)c2)cc1)NO (centres unmarked) [Compound 23, (E)-3-(4-{1-[2-(3,4-Dichloro-phenyl)-ethyl]-pyrrolidin-2-yl}-phenyl)-N-hydroxy-acrylamide] | 19 | 97
O=C(/C=C/c1ccc([C@@H]2CCCN2CCC2CCOCC2)cc1)NO [Compound 42, (E)-N-Hydroxy-3-(4-{(S)-1-[2-(tetrahydro-pyran-4-yl)-ethyl]-pyrrolidin-2-yl}-phenyl)-acrylamide] | 32 | 53
COc1ccc(C(O)CN2CCCC2c2ccc(/C=C/C(=O)NO)cc2)cc1 (centres unmarked) [Compound 30, (E)-N-Hydroxy-3-(4-{1-[2-hydroxy-2-(4-methoxy-phenyl)-ethyl]-pyrrolidin-2-yl}-phenyl)-acrylamide] | 14 | 46
O=C(/C=C/c1ccc([C@@H]2CCCN2CCc2c(C(F)(F)F)nn3ccccc23)cc1)NO [Compound 46, (E)-N-Hydroxy-3-(4-{(S)-1-[2-(2-trifluoromethyl-pyrazolo[1,5-a]pyridin-3-yl)-ethyl]-pyrrolidin-2-yl}-phenyl)-acrylamide] | 3 | 0.6
O=C(/C=C/c1ccc([C@@H]2CCCN2CCc2ccc(Cl)cc2)cc1)NO [Compound 22, (E)-3-(4-{(S)-1-[2-(4-Chloro-phenyl)-ethyl]-pyrrolidin-2-yl}-phenyl)-N-hydroxy-acrylamide] | 7 | 13

More lines, now with the values ahead:

IC50 (HDAC-1) [nM] | IC50 (HCT116) [nM] | SMILES
12 | – | Cc1n[nH]c(C)c1CCN1CCC[C@@H]1c1ccc(/C=C/C(=O)NO)cc1 [Compound 117, (E)-3-(4-{(R)-1-[2-(3,5-Dimethyl-1H-pyrazol-4-yl)-ethyl]-pyrrolidin-2-yl}-phenyl)-N-hydroxy-acrylamide]
71 | 230 | O=C(/C=C/c1ccc([C@@H]2CCCN2CCn2ccc(C(F)(F)F)n2)cc1)NO [Compound 73, (E)-N-Hydroxy-3-(4-{(S)-1-[2-(3-trifluoromethyl-pyrazol-1-yl)-ethyl]-pyrrolidin-2-yl}-phenyl)-acrylamide]
58 | 160 | CC(C)n1nnc(CCN2CCC[C@H]2c2ccc(/C=C/C(=O)NO)cc2)n1 [Compound 101, (E)-N-Hydroxy-3-(4-{(S)-1-[2-(2-isopropyl-2H-tetrazol-5-yl)-ethyl]-pyrrolidin-2-yl}-phenyl)-acrylamide]
1.4 | 5 | O=C(/C=C/c1cc(F)c([C@@H]2CCCN2CCc2cnn3ccccc23)c(F)c1)NO [Compound 94, (E)-3-{3,5-Difluoro-4-[(S)-1-(2-pyrazolo[1,5-a]pyridin-3-yl-ethyl)-pyrrolidin-2-yl]-phenyl}-N-hydroxy-acrylamide]
55 | 110 | Cc1ccn(CCN2CCC[C@H]2c2ccc(/C=C/C(=O)NO)cc2)n1 [Compound 71, (E)-N-Hydroxy-3-(4-{(S)-1-[2-(3-methyl-pyrazol-1-yl)-ethyl]-pyrrolidin-2-yl}-phenyl)-acrylamide]
1.7 | 1.7 | CCCCn1nc(C)c(CCN2CCC[C@H]2c2ccc(/C=C/C(=O)NO)cc2)c1C [Compound 97, (E)-3-(4-{(S)-1-[2-(1-Butyl-3,5-dimethyl-1H-pyrazol-4-yl)-ethyl]-pyrrolidin-2-yl}-phenyl)-N-hydroxy-acrylamide]
4 | 3 | O=C(/C=C/c1ccc([C@@H]2CCCN2CCc2cnn3ccccc23)c(Cl)c1)NO [Compound 92, (E)-3-{3-Chloro-4-[(S)-1-(2-pyrazolo[1,5-a]pyridin-3-yl-ethyl)-pyrrolidin-2-yl]-phenyl}-N-hydroxy-acrylamide]
155 | – | Cc1n[nH]c(C)c1CCN1CCC[C@H]1c1ccc(CCC(=O)NO)cc1 [Compound 119, 3-(4-{(S)-1-[2-(3,5-Dimethyl-1H-pyrazol-4-yl)-ethyl]-pyrrolidin-2-yl}-phenyl)-N-hydroxy-propionamide]
40 | 160 | Cc1c(CC(C)(C)C)nn(CCN2CCC[C@H]2c2ccc(/C=C/C(=O)NO)cc2)c1O [Compound 68, (E)-3-[4-((S)-1-{2-[3-(2,2-Dimethyl-propyl)-5-hydroxy-4-methyl-pyrazol-1-yl]-ethyl}-pyrrolidin-2-yl)-phenyl]-N-hydroxy-acrylamide]
35 | 58 | Cc1[nH]c2ccccc2c1CCN1CCN(C(=O)OC(C)(C)C)CC1c1ccc(/C=C/C(=O)NO)cc1 (centres unmarked) [Compound 87, 3-[4-((E)-2-Hydroxycarbamoyl-vinyl)-phenyl]-4-[2-(2-methyl-1H-indol-3-yl)-ethyl]-piperazine-1-carboxylic acid tert-butyl ester]
1.4 | 1.1 | O=C(/C=C/c1ccc([C@@H]2CCCN2CCc2cnn3ccccc23)cc1F)NO [Compound 93, (E)-3-{2-Fluoro-4-[(S)-1-(2-pyrazolo[1,5-a]pyridin-3-yl-ethyl)-pyrrolidin-2-yl]-phenyl}-N-hydroxy-acrylamide]
75 | – | CC(C)(O)c1nn2ccccc2c1CCN1CCC[C@H]1c1ccc(CCC(=O)NO)cc1 [Compound 113, N-Hydroxy-3-[4-((S)-1-{2-[2-(1-hydroxy-1-methyl-ethyl)-pyrazolo[1,5-a]pyridin-3-yl]-ethyl}-pyrrolidin-2-yl)-phenyl]-propionamide]
7 | 36 | O=C(/C=C/c1ccc([C@@H]2CCCN2CCc2cn[nH]c2)cc1)NO [Compound 58, (E)-N-Hydroxy-3-(4-{(S)-1-[2-(1H-pyrazol-4-yl)-ethyl]-pyrrolidin-2-yl}-phenyl)-acrylamide]
3.2 | – | Cc1nn(CC2CCOCC2)c(C)c1CCN1CCC[C@H]1c1ccc(/C=C/C(=O)NO)cc1 [Compound 109, (E)-3-[4-((S)-1-{2-[3,5-Dimethyl-1-(tetrahydro-pyran-4-ylmethyl)-1H-pyrazol-4-yl]-ethyl}-pyrrolidin-2-yl)-phenyl]-N-hydroxy-acrylamide]
